Measured values from patent US12440475B2, “Hodgkin lymphoma therapy” (priority 2016, dated 2025).

How the values were obtained:
[1] = system: L540; test: Clonogenic survival in methylcellulose, L540; type: cell-based, human; conditions: any dose (0.1, 0.5, 1, 10 and 20 μmol)
Description: (§1) In all examples, the human Hodgkin lymphoma-derived cell lines L428, L428-c, KMH2, L591, L540, L1236, HDLM2 and SUP-HD were obtained from Dr Steffen Junker (Aarhus University Denmark). All cell lines were cultured in Gibco RPMI 1640 medium supplemented with Glutamax, 10% FBS and antibiotics at 37° C. […] The immunophenotype, P53 status and MSI characterization of the Hodgkin lymphoma cell lines was determined using anti-CD30, CD15, CD20 and CD14 antibodies.
(§2) This test was performed on four Hodgkin lymphoma cell lines (L428, L428s, KMH2 and L540). Each was cultured with EDO-S101 at doses of 0, 0.1, 0.5, 1, 10 and 20 μmol in DMSO. The cell lines were cultured in methylcellulose (Stem cell Technologies) at a concentration of 10^5/ml at 37° C. and 5% CO2. The surviving fraction was determined by measuring the viability of colonies generated before and after exposure. Only colonies with more than 50 cells were counted. Each data point represents the average and SD from three independent experiments performed in triplicate.

[2] = system: KMH2; test: Clonogenic survival in methylcellulose, KMH2; type: cell-based, human; conditions: lowest doses (0.1 and 0.5 μmol)
Description: as §1, §2

[3] = system: L428; test: Clonogenic survival in methylcellulose, L428; type: cell-based, human; conditions: very low doses (0.1 and 0.5 μmol)
Description: as §1, §2

[4] = system: KMH2; test: Mitotic index and chromosomal aberrations, KMH2; type: cell-based, human
Description: (§3) The mitotic index and chromosomal aberrations for each of the cell lines were evaluated after treatment with either 20 μmol or 10 μmol EDO-S101 in DMSO. Each cell line was cultured at 37° C. in the presence of RPMI 1640 supplemented with 10% FCS and antibiotics. Colcemid (0.1 ug/ml) was added 2 h before harvesting and slides with chromosomes in metaphase were prepared following the standard methanol/acetic acid (3/1, v/v) procedure. The slides were stored at −20° C. until use.
(§4) FISH was performed using a combination of standard procedures from the recommended protocols for chromosome analysis, following telomere and centromere staining, using PNA probes. In all, 100 metaphases were scored per in vitro dose exposure.
(§5) The mitotic index was determined by measurement of the sum of all cells in prophase, metaphase, anaphase and telophase divided by the total number of cells.

[5] = system: L540; test: Mitotic index, L540; type: cell-based, human
Description: as §3, §4, §5

[6] = system: L428 cells; test: L428 xenograft in NSG mice, CD30 immunofluorescence of cytospin slides; type: in vivo; parameters: key to Spleen, red pulp activation, diffuse (CD30 staining score per animal) / Liver, Tumour cell infiltration (CD30 staining score per animal) / Bone marrow (CD30 staining score per animal): 0: without any staining; minimal, <1% staining; 2: mild, 1% staining; 3: moderate, <10% staining; marked, 10-40% staining; 5: severe, >40% of cells staining
Description: (§6) Immunodeficient NOD-SCID-gammac−/− (NSG) mice aged 5 to 6 weeks were purchased from Charles River (NOD.Cg-Prkdcscid II2rgtm1Wjl/SzJ). The mice arrived two weeks before the beginning of the experiments and were housed in micro-isolator cages during the entire course of the study. Immediately prior to the injection of Hodgkin lymphoma cells, mice were exposed to 3 Gy gamma irradiation using an IBL637 ^137Cs irradiator at a dose rate of 0.61 Gy/min. From 10^3 to 10^6 cells, either from the original cell lines or following amplification, were injected intravenously via the retro-orbital sinus. The mice were sacrificed by cervical dislocation and different organs were analysed and tumoural infiltration examined using multiple techniques.
Two independent experiments were performed to investigate the dose-effect of EDO-S101 in NSG mice eight weeks after xenografting with L428 cells as in Example 8. The aim of the protocol shown in FIG. […]
The mice were sacrificed by cervical dislocation. The sampled organs consisted of the eyes (site of injection), liver, spleen and bone marrow. Following dissection of different organs, including tumours, the first portion was used for flow cytometry (FACS) and cytogenetic analyses while the second was fixed in 4% paraformaldehyde (PFA) for immunohistochemistry (IHC). To obtain a single cell suspension, the tissues were first cut into pieces. Thereafter, the cells were physically disaggregated using an 80 μm nylon cell strainer and filtered a second time through a 70 μm nylon cell strainer (BD Biosciences, Erembodegem, Belgium).
Cells were cytospun onto poly-L-lysine-coated glass slides at 700 rpm for 4 min, fixed with 10% formalin for 10 min, and treated with 0.25% Triton X-100 solution for 10 min. After blocking with 5% bovine serum albumin (Sigma), the cells were incubated with an anti-CD30 antibody (DAKO A/S, Glostrup, Denmark). Then, cells were treated with Cyanine 3 anti-mouse IgG (Invitrogen, Carlsbad, CA). As a negative control, staining was carried out in the absence of primary antibody. The L428-s cell line served as positive control.
Individual microscopic findings following immunofluorescence CD30 staining of cytopsin slides: “0”=without any staining; “1”=minimal, <1% staining; “2”=mild, 1% staining; “3”=moderate, <10% staining; “4”=marked, 10-40% staining; “5”=severe, >40% of cells staining.

[7] = system: L428 cells; test: Orbital tumour mass at injection site in xenografted NSG mice; type: in vivo; conditions: after EDO-S101 injection
Description: as §6
Two independent experiments were performed to investigate the dose-effect of EDO-S101 in NSG mice eight weeks after xenografting with L428 cells as in Example 8. The aim of the protocol shown in FIG. 8B was to evaluate the effect of sequential treatment with a moderate dose of 60 mg/kg given at an interval of three weeks.
Some mice developed an orbital tumour mass at the site of the injection. […] In one mouse only that was treated with two doses of 60 mg/kg of EDO-S101, a regression of the orbital tumour was initially observed followed by re-establishment of the orbital mass 3 weeks later. […]

With `Cn1c(CCCCCCC(=O)NO)nc2cc(N(CCCl)CCCl)ccc21` [EDO-S101] the “clones observed (clonogenic survival)” value [1] was “No clone was observed”, the “clones observed (clonogenic survival)” value [2] was “only a few clones” and the “clones observed (clonogenic survival)” value [3] was “only macrophagic clones being observed”. For the same compound, the mitotic index [4] was “very low mitotic index”, the “chromosomal aberrations in metaphase” value ([4]; telomere and centromere staining) was “numerous chromosomal aberrations” and the mitotic index [5] was “very low mitotic index”. The “Spleen, red pulp activation, diffuse (CD30 staining score per animal)” value (“Spleen … (CD30 staining score per animal)” for short) ([6]; 1*60 mg/kg) was 0, the “Liver, Tumour cell infiltration (CD30 staining score per animal)” value (from here on “Liver … (CD30 staining score per animal)”) ([6]; 1*60 mg/kg, 60 mg/kg) was 0 and the “Liver … (CD30 staining score per animal)” value ([6]; 1*80 mg/kg) was 0. The “Spleen … (CD30 staining score per animal)” value ([6]; 1*80 mg/kg) was 0, the “Bone marrow (CD30 staining score per animal)” value ([6]; 2*60 mg/kg, 60 mg/kg) was 0 and the “Liver … (CD30 staining score per animal)” value ([6]; 2*60 mg/kg, 60 mg/kg) was 0. The “Spleen … (CD30 staining score per animal)” value ([6]; 2*60 mg/kg, 60 mg/kg) was 0, the “tumour cells in organs (liver, spleen, bone marrow)” value ([6]; single dose of 80 mg/kg) was “No tumour cells were observed in any organs” and the “orbital tumour mass at site of injection” value [7] was “signification regression”.
